Measurements reported in PubChem BioAssay AID463206 (Broad Institute, 2010).
The source made the active and inactive calls.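 Rule for the calls: active = caspase luminescence falls with dose and the half-maximal concentration AC50 from the fitted curve is at or below a set limit; inconclusive = flat fit at 30 to 70% signal loss, or invalid fit; inactive = AC50 above the limit, or signal rises instead.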

Each compound was assayed on INS-1E cytokine-induced caspase-3/7, Caspase-Glo luminescence, 48 h (assay: suppression of cytokine-driven beta-cell apoptosis – INS-1E rat cells, luminescence, orthogonal assay for beta-cell apoptosis protection project, dose response (AID 463206)).

SMILES	AC50
CC(C)(C)OC(=O)NCc1ccc(NC(=O)c2nc[nH]c2C(=O)NCCNC(=O)c2[nH]cnc2C(=O)Nc2ccc(CNC(=O)OC(C)(C)C)cc2)cc1	> 26 µM (inactive)
COc1ccc(C2=NNC(=Nc3cc(S(=O)(=O)N(C)C)ccc3C)SC2)c(OC)c1	24.8 µM
COc1cc(OC)nc(-n2ncc(Br)c(Br)c2=O)n1	> 26 µM (inactive)
CCCCCCC[N+](CC)(CC)CCCCc1ccc(Cl)cc1	> 26 µM (inactive)
O=C(NCc1nc(-c2ccc(C(F)(F)F)cc2)no1)Nc1cc(Cl)cc(Cl)c1	> 26 µM (inactive)
Cc1ccc(-c2c[n+](Cc3ccc(Cl)c(Cl)c3)c3n2CCC3)cc1	> 26 µM (inactive)
O=C1/C(=C/c2cccnc2)CCC/C1=C\c1cccnc1	> 26 µM (inactive)
COc1ccc2[nH]c3c(C)c4ccncc4c(C)c3c2c1	1.32 µM
COc1cccc(Cn2c(NCc3ccco3)nc3c2c(=O)n(C)c(=O)n3C)c1	> 26 µM (inactive)
CN(C)S(=O)(=O)c1cccc(N=C2NN=C(c3ccccc3)CS2)c1	> 26 µM (inactive)
Cc1ccc(/C=C/C(=O)c2ccc([N+](=O)[O-])o2)cc1	> 26 µM (inactive)
COC(=O)c1sccc1S(=O)(=O)Nc1ccc(N2CCCCC2)cc1	> 26 µM (inactive)
COc1ccccc1CNc1ncnc2sccc12	> 26 µM (inactive)
CNC1=C(N(C(C)=O)c2ccc(Br)cc2)C(=O)c2ccccc2C1=O	> 26 µM (inactive)
C(/CCc1ccccc1)=N\Nc1nc2ccccc2[nH]1	> 26 µM (inactive)
Cc1cc(C(=O)NC2CCCc3c2cnn3-c2ccc(C)c(C)c2)n(C)n1 (configuration not stated)	> 26 µM (inactive)
c1ccc(-c2nc(N3CCCCCC3)c3ccccc3n2)nc1	> 26 µM (inactive)
COc1ccc(Cn2c(-c3ccc(C)cc3)c[n+]3ccccc23)cc1	> 26 µM (inactive)
Cc1cccc(Oc2cc(NC(=O)c3ccccc3)cc([N+](=O)[O-])c2)c1	> 26 µM (inactive)

SMILES	AC50
O=S(=O)(/C(=C/c1ccc(C(F)(F)F)cc1)c1nc2ccccc2[nH]1)c1ccccc1	> 26 µM (inactive)
CN(C1=C(NC(=O)c2ccccc2)C(=O)c2ccccc2C1=O)C1CCS(=O)(=O)C1 (configuration not stated)	> 26 µM (inactive)
CCCCCCOC(=O)C[N+](C)(C)CCOC1CC2CCC1(C)C2(C)C (configuration not stated)	> 26 µM (inactive)
CCOC(=O)/C(=C\c1ccc([N+](=O)[O-])cc1)C(=O)c1cc(C(C)=O)c(Nc2ccccc2)s1	> 26 µM (inactive)
Cc1cccc(NC(=O)/C=C/c2ccc([N+](=O)[O-])s2)c1	2.71 µM
O=C(N/N=C/c1cc(Br)ccc1OC(=O)c1ccc(Br)cc1)c1ccncc1	> 26 µM (inactive)
Cc1nc(C(=O)NNC(=O)c2c(-c3c(Cl)cccc3Cl)noc2C)cs1	> 26 µM (inactive)
Brc1ccccc1CN1CCN(Cc2c[nH]c3ccccc23)CC1	> 26 µM (inactive)
Cc1nc2cc(-c3ccccc3)sc2c(=O)n1N	> 26 µM (inactive)
CNc1ccc2oc(C[C@H]3O[C@@]4(CC[C@H]3C)O[C@H]([C@H](C)C(=O)c3ccc[nH]3)[C@H](C)C[C@H]4C)nc2c1C(=O)O	> 26 µM (inactive)
OCCN1CCN(C2Cc3cc(Cl)ccc3Sc3ccc(Cl)cc32)CC1 (configuration not stated) (tested in a mixture with another compound)	> 26 µM (inactive)
CCN(CC)S(=O)(=O)c1ccc(NC(=O)Nc2cccc(C(F)(F)F)c2)cc1	> 26 µM (inactive)
CCCCCCCC[n+]1c(C)n(-c2ccccc2)c2ccc(NC(C)=O)cc21	> 26 µM (inactive)
COC(=O)c1ccc2c(c1)C(C)(C)C(/C=C/c1ccc(OC)c(OC)c1OC)=[N+]2C	> 26 µM (inactive)
O=C(Cc1cccs1)N/N=C\c1ccc([N+](=O)[O-])s1	> 26 µM (inactive)
c1ccc2c3c([nH]c2c1)C1(CCNCC1)NCC3	> 26 µM (inactive)
Cc1ccc(NC(=O)c2c(C(F)(F)F)nn(C)c2SCc2cccc(C(F)(F)F)c2)cc1C	> 26 µM (inactive)
CCOC(=O)c1cnc(-n2nc(C)cc2C)nc1NC(C)c1ccccc1 (configuration not stated)	> 12 µM (inactive)
